Common to all, as to format: functional
For test [1], the system named is Aspergillus niger. Kind of test: Fungicidal activity against Aspergillus niger assessed as growth inhibition at 100 ug/ml after 7 days. The following applies: 168 h, read-out: IZ.
Test [2] has as its system Aspergillus niger. Kind of test: Fungicidal activity against Aspergillus niger assessed as growth inhibition at 1000 ug/ml after 7 days. The following applies: 168 h, read-out: IZ.
Test [3] deals with Aspergillus niger. Kind of test: Fungicidal activity against Aspergillus niger assessed as growth inhibition at 50 ug/ml after 7 days. The following applies: 168 h, read-out: IZ.
The test system of test [4] is Aspergillus niger. Kind of test: Fungicidal activity against Aspergillus niger assessed as growth inhibition at 10 ug/ml after 7 days. The settings on record: 168 h, read-out: IZ.
The subject of test [5] is Aspergillus niger. Kind of test: Fungicidal activity against Aspergillus niger assessed as time required for hyphae to burst at 7.5 ug/ml.
Test [6] deals with Aspergillus niger. Kind of test: Fungicidal activity against Aspergillus niger assessed as time required for hyphae to burst at 2.5 ug/ml.
For test [7], the system named is Aspergillus niger. Kind of test: Fungicidal activity against Aspergillus niger assessed as time required for hyphae to burst at 5 ug/ml.
For test [8], the system named is Aspergillus niger. Kind of test: Fungicidal activity against Aspergillus niger assessed as time required for hyphae to burst at 10 ug/ml.

With `Cc1nc(Nc2ccccc2)nc2c1C(=N)C(C#N)CN(C(=O)c1ccccc1)C2` (configuration not stated), the zone of inhibition at 100 µg/mL in test [1] was 1.33 mm. In addition, in test [2], the zone of inhibition at 1000 µg/mL was 2.1 mm. Further, the zone of inhibition at 50 µg/mL in test [3] amounted to 1.02 mm. In addition, the zone of inhibition at 10 µg/mL in test [4] was 1 mm.
Taken in the same sequence, the figures for `Cc1cc(CBr)nc(Nc2ccccc2)n1` were 2 mm, 2.2 mm, 1.9 mm and 1.5 mm.
Taken in the same sequence, the figures for `Cc1nc(Nc2ccccc2)nc(C)c1Br` were 2.5 mm, 2.9 mm, 2.1 mm and 1.6 mm.
For `Cc1nc(Nc2ccccc2)nc(C)c1C#N`, in that order: 1.9 mm, 2.5 mm, 1.7 mm and 1.4 mm.
On to `CC(=O)N(c1ccccc1)c1nc(C)cc(C)n1` [N-ACETYL PYRIMETHANIL], for which the zone of inhibition at 100 µg/mL in test [1] was 2.7 mm. Moreover, the zone of inhibition at 1000 µg/mL in test [2] came out at 3.4 mm. In addition, the Time in test [5] was 32 s; in test [6], 9 s; in test [7], 18 s; in test [8], 51 s. Moreover, the zone of inhibition at 50 µg/mL in test [3] was 2.4 mm. In test [4], the zone of inhibition at 10 µg/mL stood at 2.1 mm.
Regarding `Cc1cc(C)nc(Nc2ccccc2)n1` [PYRIMETHANIL], the zone of inhibition at 100 µg/mL in test [1] is 3.2 mm. The zone of inhibition at 1000 µg/mL in test [2] came to 4 mm. Besides, the Time in test [5] stood at 39 s; in test [6] it was 12 s; in test [7] it was 21 s; in test [8], 56 s. In addition, in test [3], the zone of inhibition at 50 µg/mL turned out to be 2.9 mm. Further, in test [4], the zone of inhibition at 10 µg/mL was 2.6 mm.

For the origin of these results see ChEMBL document CHEMBL3045392, “Synthesis and fungicidal evaluation of some new anilinopyrimidine derivatives” (2013).
